# Source: patent publication US20250154161A1, “CRYSTAL FORMS OF THIENOIMIDAZOLE COMPOUND AND PREPARATION METHOD THEREOF” (HANGZHOU SCIWIND BIOSCIENCES CO., LTD., priority 2021, published 2025)
# Legend:
# [1] = Dynamic vapor sorption (DVS) hygroscopicity study of the crystal forms; type: physicochemical
# Description: The dynamic vapor sorption (DVS) curve is collected on the DVS Intrinsic plus by SMS (surface measurement systems). The relative humidity at 25° C. is corrected by the deliquescence point of lithium chloride (LiCl), magnesium nitrate [Mg(NO3)2] and potassium chloride (KCl).
# The test parameters are as follows:
# The hygroscopicity evaluation is classified as follows:
# The specific results are shown as the DVS spectrums in FIGS. 27-29.
# [2] = Crystal form change after drying the sample open at room temperature overnight; type: physicochemical
# Description: About 15 mg of crystal Form A of formula (II-1) compound was weighed to add into a 3 mL vial, then adding 1.0 mL MeOH/MTBE (1:1, v/v), stirring at 50° C. for equilibrating about 1 hour, and then filtering to obtain the supernatant.
# About 15 mg of crystal Form A of formula (II-1) compound was weighed to add into a 20 mL vial, then dissolving the solids completely with 0.2-1.0 mL MeOH (filtering out the undissolved sample by 0.45 m PTFE filter to obtain clear solution).
# GLP-1 receptor = target: T1, GLP-1 receptor (Homo sapiens, UniProt P43220); experiment: Detection of cell viability in vitro (cAMP detection in GLP-1 cells); type: cell-based
# T1 construct: host or cells: 'GLP-1 cell' constructed cell strain
# T1 sequence (P43220 24-463): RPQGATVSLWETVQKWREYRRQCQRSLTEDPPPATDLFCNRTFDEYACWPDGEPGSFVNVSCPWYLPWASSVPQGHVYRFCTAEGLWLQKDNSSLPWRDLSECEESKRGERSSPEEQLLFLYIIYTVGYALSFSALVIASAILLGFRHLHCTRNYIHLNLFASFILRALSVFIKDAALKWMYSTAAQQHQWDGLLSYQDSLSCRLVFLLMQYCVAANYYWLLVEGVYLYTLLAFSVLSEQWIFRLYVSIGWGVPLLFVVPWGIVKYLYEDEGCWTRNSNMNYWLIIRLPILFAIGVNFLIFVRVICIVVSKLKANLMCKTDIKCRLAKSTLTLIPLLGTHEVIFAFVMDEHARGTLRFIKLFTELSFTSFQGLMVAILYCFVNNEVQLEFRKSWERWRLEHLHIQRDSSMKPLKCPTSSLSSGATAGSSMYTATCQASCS
# Description: OptiPlate-384, White, PerkinElmer (Cat #6007290); 384 well plate for Echo, Labcyte (Cat #P-05525); EnVision, PerkinElmer; Vi-cell counter, Beckman (Cat # Vi-CELL™ XR Cell Viability Analyzer)
# The compound was prepared to a working concentration of […] with DMSO. In this test, the use amount of each sample is 5 μL.
# Preparation of cAMP detection reagent: 250 μL cAMP-D2, and 250 μL anti-cAMP cryptate reagent were added to 4 mL lysis buffer, then mixing well gently.
# The compound to be tested was diluted 3 times at 10 points, the initial concentration was 30 M; and the dilution was completed by Bravo plateform. […]
# • 1) A GLP-1 cell cryopreservation tube was quickly thawed in warm water at 37° C. 2) The cell suspension was transferred to a 15 mL Transfer centrifuge tube, then gently rinsing with 10 mL HBSS. • 3) The centrifuge tube was centrifuged at room temperature and 1000 rpm for 1 min. • 4) The supernatant was discarded. • 5) The cells at the bottom were gently dispersed and washed with 10 mL HBSS, then centrifuging to obtain cell sediment, and resuspending the cells with experimental buffer. • 6) Cell density and viability were measured by Vi-cell counter. • 7) GLP-1 cells were diluted with experimental buffer to a concentration of 2.0*10^5/mL. • 8) 100 nL of diluted cell suspension was transferred into OptiPlate-384 plate. • 9) The cells were incubated at room temperature for 30 min. […]
# [3] = Study on DMPK in rats (oral, single administration); type: in vivo; details: rat, male SD rats, oral 5 mg/kg, plasma
# Description: Male SD rats were used as test animals. After single administration, the plasma concentration of the compound was measured, and the pharmacokinetic behavior was evaluated.
# Two healthy adult male SD rats were selected as the oral group. In the oral group, the vehicle was 20% PEG400/10% solutol/70% water; after the compound to be tested was mixed with the vehicle, 0.5 mg/mL clear solution was prepared by vortex and ultrasound. After oral administration at 5 mg/kg, the whole blood of rat was collected for a certain period of time to prepare plasma; then the drug concentration was analyzed by LC-MS/MS method, and the pharmacokinetic parameters were calculated by Phoenix WinNonlin software (Pharsight, USA).
# [4] = Study on DMPK in cynomolgus monkeys (oral, single administration); type: in vivo; details: cynomolgus monkey, male cynomolgus monkeys, oral 20 mg/kg, plasma
# Description: Male cynomolgus monkeys were used as test animals. After single administration, the plasma concentration of the compound was measured, and the pharmacokinetic behavior was evaluated.
# Two healthy male cynomolgus monkeys were selected as a group. In the oral group, the vehicle was 20% HP-β-CD aqueous solution; after the compound to be tested was mixed with the vehicle, 4 mg/mL approximately clear solution was prepared by vortex and ultrasound. After oral administration at 20 mg/kg, the whole blood of cynomolgus monkey was collected for a certain period of time to prepare plasma; then the drug concentration was analyzed by LC-MS/MS method, and the pharmacokinetic parameters were calculated by Phoenix WinNonlin software (Pharsight, USA).
# [5] = Solid stability of crystal forms under accelerated conditions, XRPD detection; type: physicochemical; details: for Crystal form: 75% RH, open, XRPD detection
# [6] = read-out: F % (oral bioavailability)
structure (smiles),measurement,setting,value
O=C(O)c1cc2c(nc(CN3CC=C(c4cccc(OCc5ccc(Cl)cc5F)n4)CC3)n2C[C@@H]2CCO2)s1 [crystal Form A],crystal form before and after adsorption and desorption,[1],changes
same,hygroscopic weight gain,[1]; 25° C. and 80% RH,2.20%
O=C(O)c1cc2c(nc(CN3CC=C(c4cccc(OCc5ccc(Cl)cc5F)n4)CC3)n2C[C@@H]2CCO2)s1 [crystal Form B],crystal form after drying open at room temperature overnight,[2],transformed into crystal Form E
O=C(O)c1cc2c(nc(CN3CC=C(c4cccc(OCc5ccc(Cl)cc5F)n4)CC3)n2C[C@@H]2CCO2)s1 [compound of formula (I)],EC50,"GLP-1 receptor; GLP-1 target in HEK293 host cell, cAMP detection, read-out: Human-GLP1, EC50",0.37 nM
same,ability to stimulate GLP-1 receptor,"GLP-1 receptor; cAMP, GLP-1 cells",better ability to stimulate GLP-1 receptor
same,Cmax,[3],85.5 nM
same,AUC(0-t),[3]; 24-hour oral exposure,0.234 µM·h
same,bioavailability,[3]; [6],6.6%
same,Cmax,[4],1420 nM
same,AUC(0-t),[4]; 24-hour oral exposure,12.8 µM·h
same,bioavailability,[4]; [6],22.1%
O=C(O)c1cc2c(nc(CN3CC=C(c4cccc(OCc5ccc(Cl)cc5F)n4)CC3)n2C[C@@H]2CCO2)s1 [crystal Form E],Crystal form,"[5]; 40° C., Day 5",crystal Form E
same,Crystal form,"[5]; 40° C., Day 15",crystal Form E
same,Crystal form,"[5]; 40° C., Month 1",crystal Form E
same,Crystal form,"[5]; 40° C., Month 2",crystal Form E
same,Crystal form,"[5]; 60° C., Day 5",crystal Form E
same,Crystal form,"[5]; 60° C., Day 15",crystal Form E
same,Crystal form,"[5]; 60° C., Month 1",crystal Form E
same,Crystal form,"[5]; 60° C., Month 2",crystal Form E
same,solid stability (conclusion),"[5]; fully exposed, 40° C./75% RH and 60° C./75% RH, XRPD compared with day 0",good stability
